Test results published in ChEMBL document CHEMBL5244275, “Geminal Diheteroatomic Motifs: Some Applications of Acetals, Ketals, and Their Sulfur and Nitrogen Homologues in Medicinal Chemistry and Drug Design” (J Med Chem, 2021).
Values after ≈ are worked out from the molar mass of the structure shown.

Experiments:
[1] = molecular target: Substance-P receptor (Homo sapiens, UniProt P25103); experiment: Displacement of [125I]-labeled SP from human NK-1 receptor expressed in CHO cells at 1 uM relative to control; format: cell-based; settings: filed as antagonist
[2] = molecular target: Sodium-dependent dopamine transporter (Homo sapiens, UniProt Q01959); experiment: Inhibition of dopamine transporter (unknown origin)
[3] = molecular target: Sodium-dependent serotonin transporter (Homo sapiens, UniProt P31645); experiment: Inhibition of SERT (unknown origin)
[4] = test system: Mus musculus; experiment: Anticonvulsant activity in MES induced mouse model of seizure at 75 mg/kg, po measured after 4 hrs relative to control; format: functional
[5] = Oral bioavailability in rat; format: ADME, organism-based; settings: in vivo
[6] = Half-life in po dosed rat; format: ADME, organism-based; settings: in vivo
[7] = Stability of the compound assessed as compound hydrolysis by measuring relative rate constant by dilatometric method; format: physicochemical
[8] = test system: Human immunodeficiency virus 1; experiment: Antiviral activity against HIV1 infected in human MT4 cells assessed as inhibition of viral replication; format: functional, organism-based; settings: Human immunodeficiency virus 1, MT4
[9] = test system: Human immunodeficiency virus 1; experiment: Selectivity index, ratio of EC50 for antiviral activity against HIV-1 G140S/Q148R mutant to EC50 for antiviral activity against wild-type HIV-1; format: functional
[10] = Unbound fraction in human plasma; format: ADME, cell-free
[11] = molecular target: PXR (NR1I2) (Homo sapiens, UniProt O75469); experiment: Activation of PXR (unknown origin) in human DPX2 cells assessed as maximal efficacy at 15 uM relative to control; format: cell-based
[12] = Solubility of the compound at pH 7 incubated for 12 hrs by UPLC analysis; format: physicochemical; settings: buffer, pH 7, 12 h
[13] = Bioavailability in rat at 0.5 mg/kg, iv measured after 30 mins by LC-MS/MS analysis; format: ADME, organism-based; settings: in vivo
[14] = Bioavailability in dog at 1 mg/kg, iv measured after 30 mins by LC-MS/MS analysis; format: ADME, organism-based, Canis lupus familiaris; settings: in vivo
[15] = Half-life in human; format: ADME
[16] = Antiplatelet activity in human platelet rich plasma assessed as platelet aggregation; format: functional, cell-free
[17] = Stability of the compound assessed as compound hydrolysis by measuring rate constant; format: physicochemical
[18] = species: Mus musculus; experiment: Analgesic activity in mouse assessed as protection against phenylbenzoquinone-induced writhing; format: functional
[19] = Stability of the compound at pH 2 assessed as half-life; format: physicochemical; settings: buffer
[20] = test system: Plasmodium falciparum; experiment: Antiplasmodial activity against Plasmodium falciparum W2 assessed as inhibition of parasite growth; format: functional, organism-based
[21] = Half-life in iv dosed rat plasma; format: ADME, organism-based
[22] = Oral bioavailability in mouse; format: ADME, organism-based; settings: in vivo
[23] = test system: Mus musculus; experiment: Ex vivo inhibition of FAAH in ip dosed mouse brain assessed as drug concentration required to inhibit [3H]ethanolamine degradation; format: functional; settings: read-out: ID50 (the source's name)
[24] = test system: Mus musculus; experiment: Ex vivo inhibition of FAAH in po dosed mouse brain assessed as drug concentration required to inhibit [3H]ethanolamine degradation; format: functional; settings: read-out: ID50 (the source's name)
[25] = molecular target: Sterol O-acyltransferase 1 (Rattus norvegicus, UniProt O70536); experiment: Inhibition of ACAT in rat
[26] = molecular target: Polymerase acidic protein (Influenza A virus (A/Puerto Rico/8/1934(H1N1)), UniProt P03433); experiment: Inhibition of Influenza A virus CEN
[27] = Inhibition of Acinetobacter baumannii beta-lactamase OXA-235
[28] = Inhibition of Acinetobacter baumannii beta-lactamase OXA-143
[29] = Inhibition of Acinetobacter baumannii beta-lactamase OXA-24
[30] = Stability of the compound at pH 7.4 aqueous phosphate buffer assessed as half-life; format: physicochemical
[31] = molecular target: Hepatitis C virus serine protease, NS3/NS4A (Hepatitis C virus, UniProt A3EZI9+D2K2A8); experiment: Inhibition of Hepatitis C virus NS4A-NS3 protease by continuous assay; format: protein-complex assay, Hepacivirus hominis
[32] = Dissociation constant, pKa of the compound; format: physicochemical
[33] = Inhibition of Calcium channel (unknown origin); parameters: species or system Homo sapiens
[34] = test system: Cavia porcellus; experiment: Antiinflammatory activity in po dosed substance P-induced guinea pig model of dermal inflammation; format: functional; settings: read-out: ID50 (the source's name)

Sequence of Substance-P receptor (P25103 whole entry): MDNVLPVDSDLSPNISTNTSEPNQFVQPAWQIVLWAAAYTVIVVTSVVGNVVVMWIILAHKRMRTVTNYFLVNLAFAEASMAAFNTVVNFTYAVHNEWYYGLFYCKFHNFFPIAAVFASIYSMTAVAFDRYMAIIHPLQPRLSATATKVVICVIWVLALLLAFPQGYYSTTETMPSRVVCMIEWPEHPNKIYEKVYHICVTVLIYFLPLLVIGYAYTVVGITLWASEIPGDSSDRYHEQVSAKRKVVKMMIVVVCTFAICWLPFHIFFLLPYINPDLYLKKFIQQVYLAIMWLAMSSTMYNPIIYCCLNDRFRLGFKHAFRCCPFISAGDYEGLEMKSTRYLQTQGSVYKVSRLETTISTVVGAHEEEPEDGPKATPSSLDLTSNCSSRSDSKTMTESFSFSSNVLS
Sequence of Sterol O-acyltransferase 1 (O70536 whole entry): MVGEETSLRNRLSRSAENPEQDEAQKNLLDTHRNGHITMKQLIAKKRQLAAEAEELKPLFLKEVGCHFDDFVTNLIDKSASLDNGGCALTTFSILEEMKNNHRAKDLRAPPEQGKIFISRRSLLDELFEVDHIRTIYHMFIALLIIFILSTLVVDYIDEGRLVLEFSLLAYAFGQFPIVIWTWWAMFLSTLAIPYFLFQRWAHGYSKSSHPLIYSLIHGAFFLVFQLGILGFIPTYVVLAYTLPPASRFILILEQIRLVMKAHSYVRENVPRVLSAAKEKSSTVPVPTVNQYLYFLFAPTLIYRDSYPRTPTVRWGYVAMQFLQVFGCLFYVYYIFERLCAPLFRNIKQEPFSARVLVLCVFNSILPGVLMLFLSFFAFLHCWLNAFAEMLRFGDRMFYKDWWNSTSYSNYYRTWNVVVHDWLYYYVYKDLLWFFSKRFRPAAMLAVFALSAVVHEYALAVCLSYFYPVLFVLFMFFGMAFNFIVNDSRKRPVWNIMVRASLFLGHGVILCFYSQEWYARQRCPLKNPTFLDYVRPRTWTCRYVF
Sequence of Sodium-dependent serotonin transporter (P31645 whole entry): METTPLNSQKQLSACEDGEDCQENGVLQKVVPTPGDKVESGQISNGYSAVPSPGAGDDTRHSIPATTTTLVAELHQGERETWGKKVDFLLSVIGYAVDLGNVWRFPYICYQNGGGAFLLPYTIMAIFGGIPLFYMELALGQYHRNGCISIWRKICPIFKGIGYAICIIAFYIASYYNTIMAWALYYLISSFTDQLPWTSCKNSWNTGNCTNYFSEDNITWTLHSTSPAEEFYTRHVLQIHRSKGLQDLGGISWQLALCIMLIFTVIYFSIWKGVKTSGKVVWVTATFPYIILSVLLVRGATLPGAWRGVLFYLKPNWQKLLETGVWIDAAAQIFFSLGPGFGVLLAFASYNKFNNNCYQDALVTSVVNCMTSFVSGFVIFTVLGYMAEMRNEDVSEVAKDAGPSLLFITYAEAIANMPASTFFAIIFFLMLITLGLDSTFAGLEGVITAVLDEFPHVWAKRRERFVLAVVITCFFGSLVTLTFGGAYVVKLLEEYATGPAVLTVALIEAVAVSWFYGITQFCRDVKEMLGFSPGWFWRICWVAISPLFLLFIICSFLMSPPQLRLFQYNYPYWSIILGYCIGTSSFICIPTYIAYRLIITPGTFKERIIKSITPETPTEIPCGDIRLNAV
Sequence of Sodium-dependent dopamine transporter (Q01959 whole entry): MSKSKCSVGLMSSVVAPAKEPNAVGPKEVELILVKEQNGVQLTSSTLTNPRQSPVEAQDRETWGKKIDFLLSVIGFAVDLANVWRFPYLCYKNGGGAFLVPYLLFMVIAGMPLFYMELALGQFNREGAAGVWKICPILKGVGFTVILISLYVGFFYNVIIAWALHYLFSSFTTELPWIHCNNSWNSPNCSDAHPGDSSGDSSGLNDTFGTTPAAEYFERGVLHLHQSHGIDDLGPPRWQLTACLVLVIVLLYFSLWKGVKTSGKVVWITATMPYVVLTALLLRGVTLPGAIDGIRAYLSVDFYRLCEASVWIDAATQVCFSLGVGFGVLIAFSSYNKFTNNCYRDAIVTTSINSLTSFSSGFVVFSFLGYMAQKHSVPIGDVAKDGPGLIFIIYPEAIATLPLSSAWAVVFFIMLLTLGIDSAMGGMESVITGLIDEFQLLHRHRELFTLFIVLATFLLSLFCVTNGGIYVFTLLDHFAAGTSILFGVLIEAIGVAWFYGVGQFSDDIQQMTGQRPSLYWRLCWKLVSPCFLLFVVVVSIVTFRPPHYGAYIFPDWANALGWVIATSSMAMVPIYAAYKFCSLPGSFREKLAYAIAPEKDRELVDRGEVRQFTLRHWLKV
Sequence of PXR (NR1I2) (O75469 whole entry): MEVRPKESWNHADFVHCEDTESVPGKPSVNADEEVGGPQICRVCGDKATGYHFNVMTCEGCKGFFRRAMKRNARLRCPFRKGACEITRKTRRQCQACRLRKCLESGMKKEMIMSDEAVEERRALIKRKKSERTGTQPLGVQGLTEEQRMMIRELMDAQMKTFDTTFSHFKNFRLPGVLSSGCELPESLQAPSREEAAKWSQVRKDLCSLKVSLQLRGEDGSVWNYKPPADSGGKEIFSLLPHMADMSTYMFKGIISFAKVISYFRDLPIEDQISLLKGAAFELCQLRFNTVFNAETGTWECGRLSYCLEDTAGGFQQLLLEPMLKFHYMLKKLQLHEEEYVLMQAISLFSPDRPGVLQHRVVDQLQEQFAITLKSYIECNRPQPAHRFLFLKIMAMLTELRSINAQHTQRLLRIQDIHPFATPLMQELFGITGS
Sequence of Hepatitis C virus serine protease, NS3/NS4A (D2K2A8 whole entry): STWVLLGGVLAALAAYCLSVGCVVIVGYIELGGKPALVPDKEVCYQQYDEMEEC
Sequence of Hepatitis C virus serine protease, NS3/NS4A (A3EZI9 whole entry): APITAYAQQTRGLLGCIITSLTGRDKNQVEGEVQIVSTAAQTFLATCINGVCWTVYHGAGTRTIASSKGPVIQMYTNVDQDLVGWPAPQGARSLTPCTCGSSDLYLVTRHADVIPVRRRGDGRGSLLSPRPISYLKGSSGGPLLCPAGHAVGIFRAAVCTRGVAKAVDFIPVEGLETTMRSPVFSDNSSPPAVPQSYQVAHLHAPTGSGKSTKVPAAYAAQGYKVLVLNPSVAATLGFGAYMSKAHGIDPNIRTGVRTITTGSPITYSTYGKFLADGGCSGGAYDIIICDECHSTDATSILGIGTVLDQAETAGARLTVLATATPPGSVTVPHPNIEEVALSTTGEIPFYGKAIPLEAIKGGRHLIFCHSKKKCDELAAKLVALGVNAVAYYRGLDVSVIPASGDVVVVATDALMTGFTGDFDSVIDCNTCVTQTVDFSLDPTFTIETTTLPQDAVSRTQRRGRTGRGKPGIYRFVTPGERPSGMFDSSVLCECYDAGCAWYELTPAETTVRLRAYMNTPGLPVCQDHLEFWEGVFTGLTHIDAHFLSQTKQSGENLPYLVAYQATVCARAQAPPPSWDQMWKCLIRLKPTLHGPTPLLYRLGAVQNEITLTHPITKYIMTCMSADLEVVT

Question: Which Activity [1] does the source give for `Fc1ccc([C@@H]2NCCO[C@]23CC[C@@H](c2ccccc2C(F)(F)F)CO3)cc1` here?
Answer: Its Activity is 47%.

Question: With `Fc1ccc([C@@H]2NCCO[C@@]23CC[C@H](c2ccccc2C(F)(F)F)CO3)cc1` as the compound, how does the Activity [1] read?
Answer: The Activity was 44%.

Question: Which results are given for `COC(=O)[C@H]1[C@@H](c2ccc(Cl)c(Cl)c2)C[C@@H]2CC[C@H]1N2C`?
Answer: IC50 [2]: 1.1 nM; IC50 [3]: 2 nM

Question: With `CC1(C)O[C@H]2[C@H](O)[C@H](O)CO[C@@]2(COS(N)(=O)=O)O1` as the compound, how does the Activity [4] read?
Answer: Its Activity is 40%.

Question: With `CC(C)(N)CNC(=O)CC1CCC2(CC1)OOC1(O2)C2CC3CC(C2)CC1C3` (stereo not drawn) as the compound, how does the bioavailability [5] read?
Answer: The bioavailability was 35%.

Question: What about the half-life [6] of the same compound?
Answer: Its half-life is 1 h.

Question: For `COC(=O)[C@H]1[C@@H](c2ccc(Cl)c(Cl)c2)C[C@@H]2CC[C@H]1O2`, which IC50 [2] is on record?
Answer: The IC50 was 3.27 nM.

Question: And the IC50 [3]?
Answer: The IC50 was 4.67 nM.

Question: Which K [7] does the source give for `CC1OCCO1` here?
Answer: The K was 5.1 10^3No_unit.

Question: Which EC50 [8] does the source give for `C[C@@H]1CCO[C@H]2Cn3cc(C(=O)NCc4ccc(F)cc4F)c(=O)c(O)c3C(=O)N12` [DOLUTEGRAVIR] here?
Answer: The EC50 was 1.7 nM.

Question: What about the “Ratio EC50” value [9] of the same compound?
Answer: The value was 4.8.

Question: And the Fu [10]?
Answer: Its Fu is 0.7%.

Question: And the Emax at 15 µM [11]?
Answer: Its Emax at 15 µM is 51%.

Question: What about the solubility [12] of the same compound?
Answer: Its solubility is 53 µg/mL (≈ 126 µM).

Question: And the bioavailability [13]?
Answer: The bioavailability was 52%.

Question: What about the bioavailability [14] of the same compound?
Answer: The bioavailability was 17%.

Question: What about the half-life [15] of the same compound?
Answer: Its half-life is 14 h.

Question: With `CCCCC[C@H](O)/C=C/[C@H]1O[C@H]2C[C@H](O2)[C@@H]1C/C=C\CCCC(=O)O` as the compound, how does the EC50 [16] read?
Answer: Its EC50 is 162 nM.

Question: What about the K [17] of the same compound?
Answer: The K was 5.5 10^5/M/s.

Question: What does the source list for `O=C(NCc1c(F)cc(F)cc1F)c1cn2c(c(O)c1=O)C(=O)N1[C@H]3CC[C@H](C3)O[C@@H]1C2` [BICTEGRAVIR]?
Answer: EC50 [8]: 1.9 nM; Ratio EC50 [9]: 2; Fu [10]: 0.3%; Emax at 15 µM [11]: 18%; solubility [12]: 119 µg/mL (≈ 265 µM); bioavailability [13]: 50%; bioavailability [14]: 28%; half-life [15]: 19 h

Question: For `c1ccc([C@@]23OC[C@@H](CCn4c2nc2ccccc24)O3)cc1`, which ED50 [18] is on record?
Answer: The ED50 was 100 mg/kg.

Question: Which results are given for `C[C@@H]1CC[C@H]2[C@@H](C)[C@](O)(C(F)(F)F)O[C@@H]3O[C@@]4(C)CC[C@@H]1[C@]32OO4`?
Answer: half-life [19]: 760 h; IC50 [20]: 2.6 nM; half-life [21]: 1.43 h; bioavailability [22]: 28%

Question: With `COc1ccc2c(cccc2[C@H]2CO[C@H](CCCNC(=O)OCC(N)=O)OC2)c1` as the compound, how does the ED50 [23] read?
Answer: The ED50 was 0.1 mg/kg.

Question: And the ED50 [24]?
Answer: Its ED50 is 0.17 mg/kg.

Question: With `C1COCO1` as the compound, how does the K [7] read?
Answer: The K was 1.

Question: For `c1ccc(-c2nc(C3OCCCO3)[nH]c2-c2ccccc2)cc1`, which IC50 [25] is on record?
Answer: The IC50 was 110 nM.

Question: Which IC50 [26] does the source give for `COC(=O)OCOc1c2n(ccc1=O)N([C@@H]1c3ccccc3SCc3c1ccc(F)c3F)[C@@H]1COCCN1C2=O` [BALOXAVIR MARBOXIL] here?
Answer: The IC50 was 530 nM.

Question: For `C[C@]1(COC(=O)Cc2ccc(O)c(O)c2)[C@H](C(=O)O)N2C(=O)/C(=C/c3ccccn3)[C@H]2S1(=O)=O`, which IC50 [27] is on record?
Answer: Its IC50 is 8 nM.

Question: And the IC50 [28]?
Answer: The IC50 was 3 nM.

Question: What about the IC50 [29] of the same compound?
Answer: The IC50 was 15 nM.

Question: With `CCCCC[C@H](O)/C=C/[C@H]1O[C@@H]2O[C@H]([C@@H]1C/C=C\CCCC(=O)O)C2(F)F` as the compound, how does the half-life [30] read?
Answer: The half-life was 322 days.

Question: What about the EC50 [16] of the same compound?
Answer: Its EC50 is 36 nM.

Question: With `Cc1cc(C)n(CCCC[C@H]2CO[C@@H](c3nc(-c4ccccc4)c(-c4ccccc4)[nH]3)OC2)n1` as the compound, how does the IC50 [25] read?
Answer: Its IC50 is 75 nM.

Question: With `CCC[C@H](NC(=O)[C@@H]1[C@H]2O[C@H]3CCCOc4cccc(c4)CC(=O)N[C@@H](C4CCCCC4)CN1C[C@@H]2O3)C(=O)C(=O)NCC(=O)N[C@H](C(=O)OC(C)(C)C)c1ccccc1` as the compound, how does the Ki [31] read?
Answer: The Ki was 38 nM.

Question: For `O=c1[nH]nc(CN2CCC[C@H](OCc3cc(C(F)(F)F)cc(C(F)(F)F)c3)[C@@H]2c2ccccc2)[nH]1`, which pKa [32] is on record?
Answer: Its pKa is 5.3.

Question: And the IC50 [33]?
Answer: Its IC50 is 13000 nM.

Question: And the ED50 [34]?
Answer: Its ED50 is 0.037 mg/kg.
